Data published in US7585873B2, “1-(aminoalkyl)-3-sulfonylazaindoles as 5-hydroxytryptamine-6 ligands” (Wyeth, priority 2002, dated 2009).

Key:
[1] = biological target: T1, human cloned 5-HT6 receptors (Homo sapiens, UniProt P50406); assay: 5-HT6 binding affinity, [3H]-LSD displacement on membranes of Hela cells expressing human cloned 5-HT6 receptors; details: [3H]-LSD 3.0 nM, Hela cell membranes, 120 min at room temperature; read-out: 5-HT6 Binding Ki
T1 construct: expressed in transfected cells; host or cells: Hela cells
T1 sequence (P50406 whole entry): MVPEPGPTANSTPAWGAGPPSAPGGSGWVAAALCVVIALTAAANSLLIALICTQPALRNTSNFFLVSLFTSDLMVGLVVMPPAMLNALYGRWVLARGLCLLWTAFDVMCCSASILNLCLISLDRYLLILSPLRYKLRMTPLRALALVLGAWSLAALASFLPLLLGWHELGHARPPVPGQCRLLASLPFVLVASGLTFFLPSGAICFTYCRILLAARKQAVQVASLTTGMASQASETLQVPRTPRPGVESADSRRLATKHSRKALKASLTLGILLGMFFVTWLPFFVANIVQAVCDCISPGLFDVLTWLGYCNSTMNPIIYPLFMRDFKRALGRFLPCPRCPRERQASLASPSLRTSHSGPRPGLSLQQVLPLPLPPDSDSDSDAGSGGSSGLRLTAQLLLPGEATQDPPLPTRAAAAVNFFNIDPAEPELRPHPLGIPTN

Ki [1]: 214 nM
melting point: 244 to 246 °C
SMILES: CN(C)CCn1cc(S(=O)(=O)c2ccccc2)c2nc(Cl)ccc21 [Example 81]
